Data published in paper PMC11242853, “The Antimicrobial Activity of Human Defensins at Physiological Non-Permeabilizing Concentrations Is Caused by the Inhibition of the Plasma Membrane H^+-ATPases” (International Journal of Molecular Sciences, 2024).

Tests used:
C. albicans cells [1] = test: Extracellular potassium measurement (K+-efflux, ICP-MS); assay type: cell-based, Candida albicans
Experimental: Potassium measurements were performed via inductively coupled plasma mass spectrometry using an Agilent 7700x ICP-MS (Agilent Technologies, Santa Clara, CA, USA). C. albicans cells were cultured in SDB for 16–20 h at 30 °C. The cells were then subcultured in the same media to the mid-logarithmic growth phase and rapidly washed in sterile, deionized, double-distilled water. The cells (10^7 cells/mL) were immediately incubated with the peptides (NPIC) for 90 min at 37 °C. The tubes were centrifuged at 1100× g for 10 min and the supernatants were collected and stored at 4 °C until analysis. The percentage of cytosolic potassium released from cell suspensions treated with nystatin (50 μM) was determined in positive control assays. Total cellular K^+-content (100% value) was measured in the supernatant of cell suspensions previously treated with 0.5% (v/v) HClO4 alone, heated for 1 h at 95 °C, and centrifuged to remove cell debris. Results are expressed as the percentage (means ± SD) of K^+-release relative to the total cellular K^+-content from duplicates of at least three independent assays.

[2] = tested on: Candida albicans ATCC 10231; test: Antimicrobial spread-plate (CFU) killing assay, C. albicans; assay type: cell-based; details: for effect of high extracellular K+ on candidacidal activity: 50 mM KCl, defensins at NPIC, hLf 5 μM, BM2 0.25 μM, nystatin 50 μM; for effect of Tok1p inhibition (TEA) on candidacidal activity: preincubation 15 min at 37 °C with 10 mM TEA+
Experimental: (§1) To determine whether the above microbicidal concentrations exert a permeabilizing effect on fungal and bacterial membranes, the influx of the fluorescent nucleic acid-binding dye propidium iodide (PI) in cells incubated with the peptides was assessed. In cells, dye uptake reflects membrane permeabilization, as PI itself cannot permeate through an intact phospholipid bilayer. […] To select an antimicrobial but non-permeabilizing concentration of each peptide for further assays, we defined as a non-permeabilizing inhibitory concentration (NPIC) the antimicrobial inhibitory concentration (≤10% viable cells) that permeabilized ≤ 10% of cells incubated (90 min at 37 °C) in buffer solution.
(§2) Microbial susceptibility to the peptides was determined in a spread-plate assay as described previously. Briefly, cell suspensions (10^6 cells/mL) in Tris buffer (10 mM Tris-HCl, pH 7.4) were incubated for 90 min at 37 °C with 2-fold serial peptide dilutions. Peptide concentrations ranged from 0 to 2 μM. After incubation, the number of viable cells was determined by plating aliquots (100 μL) in duplicate on plates (SDA for C. albicans, TSA for P. aeruginosa, and M17G agarified medium for L. lactis) that had been dried for 30 min at room temperature in a laminar flow hood. Plates were incubated for 24–48 h at 30 °C (C. albicans and L. lactis) or 24 h at 37 °C (P. aeruginosa). Dilutions yielding 50–200 colonies were counted. Cell viability values, expressed as colony-forming units (CFUs), were calculated relative to the incubation without added peptides and represent the means ± standard deviation (SD) from duplicates of three independent experiments. For inhibition assays, unless otherwise noted, cell suspensions were preincubated (15 min at 37 °C) with the appropriate inhibitor prior to the addition of peptides, but the inhibitor was present throughout the incubation period with the peptide (90 min at 37 °C). Other specific experimental conditions are described as appropriate. In some experiments, the concentrations of human lactoferrin against C. albicans (5 μM), P. aeruginosa (1 μM), and L. lactis (0.065 μM) were used in the control assays. In various viability assays, BM2 peptide (0.25 μM), CCCP (50 μM), colistin (4 μg/mL), nystatin (50 μM), oligomycin A (16 μg/mL), piericidin A (32 μM), and TEA (10 mM) were used.

C. albicans cells [3] = test: Oxygen consumption measurement (polarographic), C. albicans; assay type: cell-based, Candida albicans; details: after 30 min; defensins 2 x NPIC, human lactoferrin 20 μM, piericidin A 32 µM; preincubated 15 min at 37 °C; untreated cells 94% ± 2%; means ± SD, three experiments
Experimental: (§3) Oxygen consumption by C. albicans and P. aeruginosa cells was determined by polarographically using a biological oxygen monitor (dual digital-model 20; Rank Brothers Ltd., Cambridge, UK) at 25 °C. The apparatus consisted of a twin water-jacketed closed sample chamber, which enabled a control experiment to be conducted concurrently. The cells were grown to mid-log phase in SDB (C. albicans) or TSB (P. aeruginosa), washed twice in Tris buffer, and resuspended in the same buffer. Cell suspensions (approximately 10^7 cells/mL) were preincubated with defensins (2 x NPIC), human lactoferrin (20 μM), or piericidin A (32 μM) for 15 min at 37 °C. Oxygen consumption was recorded at 5-min intervals for a period of 30 min. Three independent experiments were performed, and the data are means ± SD.

P. aeruginosa cells = test: Oxygen consumption measurement (polarographic), P. aeruginosa; assay type: cell-based, Pseudomonas aeruginosa; details: after 30 min; defensins 2 x NPIC, human lactoferrin 20 μM, piericidin A 32 µM; preincubated 15 min at 37 °C; untreated cells 83% ± 2%; means ± SD, three experiments
Experimental: as §3

C. albicans cells [4] = test: Total cellular ATP (BacTiter-Glo); assay type: cell-based, Candida albicans; details: defensins at NPIC, human lactoferrin 5 μM, BM2 peptide 0.25 μM; 10^6 cells/mL; BacTiter-Glo luminescence
Experimental: Total ATP was measured using the BacTiter-Glo^TM Microbial Cell Viability Assay (Promega Co., Madison, WI, USA) according to the manufacturer’s instructions. […] Aliquots (100 µL) were incubated (90 min at 37 °C) with human defensins (NPICs). Human lactoferrin (5 μM) or BM2 peptide (0.25 μM) was used as positive controls. One hundred microliters of the incubation mixture was transferred to an opaque 96-well plate, mixed with an equal volume of BacTiter-Glo^TM reagent, and incubated for 15 min in the dark. The reagent uses a thermostable luciferase to generate luminescence in an ATP-dependent manner. The emitted luminescence was detected using a Varioskan Flash multimode reader (Thermo Scientific, Waltham, MA, USA) with a 10 s shaking and 1 s integration time. A calibration curve was generated for each experiment with ATP standards ranging from 1 to 1000 nM. All assays were performed at least three times in duplicate.

C. albicans cells [5] = test: Membrane potential monitoring with DiBAC4(3), flow cytometry; assay type: cell-based, Candida albicans; details: peptides at NPIC, hLf 5 μM, BM2 0.25 μM; DiBAC4(3) 1 µg/mL
Experimental: The membrane potential-sensitive probe DiBAC4(3) was used to monitor the transmembrane electrical potential of C. albicans cells as previously described with slight modifications. Briefly, cells were harvested from mid-log phase cultures via centrifugation and suspended in Tris buffer. The cell suspension was adjusted to 10^6 cells/mL and then incubated with DiBAC4(3) at a final concentration of 1 µg/mL for 30 min. Fluorescence was measured using a CytoFLEX S flow cytometer (Beckman Coulter) with excitation at 561 nm and emission at 690/50 nm. For each treatment, 5000 events were counted per experiment with an exposure time of 1000 ms. Results were analyzed using CytExpert 2.1 Acquisition software. As positive controls, human lactoferrin and BM2 peptide were used. Three independent experiments were performed and data are expressed as means ± SD.

[6] = tested on: Pseudomonas aeruginosa PAO1; test: Antimicrobial spread-plate (CFU) killing assay, P. aeruginosa; assay type: cell-based
Experimental: as §1, §2

C[C@@H]1[C@H](O)[C@@H](C)/C=C/C=C/CC/C=C/C=C/C=C/C=C/C(O[C@H]2O[C@H](C)[C@@H](O)[C@H](N)[C@@H]2O)CC2O[C@](O)(CC(O)C(O)CCC(O)CC(O)CC(O)CC(=O)O[C@H]1C)CC(O)C2C(=O)O (stereo partly drawn) [nystatin, reference compound] was tested, and the “K^+-release from yeast cells” value (C. albicans cells [1]; nystatin 50 μM, 90 min, 37 °C, relative to total cellular K+-content (100%), ICP-MS) was 70–85%, the “effect of high extracellular K+ on candidacidal activity” value [2] was “no effect” and the “effect of Tok1p inhibition (TEA) on candidacidal activity” value ([2]; peptides at NPIC) was “not altered”.
For C/C=C(\C)[C@H](O)[C@H](C)/C=C(C)/C=C/C/C(C)=C/Cc1nc(OC)c(OC)c(O)c1C [piericidin A, reference compound], the “oxygen consumption percentage of C. albicans” value (C. albicans cells [3]) was 20% ± 3% and the “O2 consumption of P. aeruginosa” value (P. aeruginosa cells) was 17% ± 3%.
With “D-NH2-RRRFWWFRRR-CONH2 [BM2 peptide, positive control, reference compound]” the “K^+-efflux pattern in C. albicans” value (C. albicans cells [1]; peptides at NPIC / microbicidal concentrations, 10^7 cells/mL, 90 min at 37 °C, steady state compared with maximum intracellular K+ of untreated cells) was “partial K^+-efflux”, the “increase in ATP levels compared to the untreated control” value (C. albicans cells [4]) was ~ 9 fold and the “transmembrane electrical potential (DiBAC4(3) fluorescence)” value (C. albicans cells [5]) was “increase in DiBAC4(3) fluorescence”. The “effect of high extracellular K+ on candidacidal activity” value [2] was “significantly decreased”, the “effect of piericidin A on candidacidal activity” value ([2]; cells preincubated 15 min at 37 °C with 32 µM piericidin A, then peptides (NPIC) 90 min) was “significantly (p < 0.001) inhibited” and the “effect of oligomycin A on candidacidal activity” value ([2]; preincubated 15 min at 37 °C with 16 μg/mL oligomycin A, peptides at NPIC) was “significantly reduced”. For the same compound, the “effect of Tok1p inhibition (TEA) on candidacidal activity” value ([2]; peptides at NPIC) was “reduced”.
N#CC(C#N)=NNc1cccc(Cl)c1 [CCCP, carbonyl cyanide m-chlorophenylhydrazone, reference compound] was tested, and the “viability of P. aeruginosa with CCCP alone, acidic extracellular pH” value ([6]; 50 µM CCCP, pH of 5.5 and 6.5) was “decreased” and the “viability of P. aeruginosa with CCCP alone, alkaline pH” value ([6]; 50 µM CCCP, pH of 7.4, 7.7, and 8.0) was “not significantly altered”.
With “colistin (polymyxin E) [reference compound]” the “effect of high extracellular K+ on pseudomonacidal activity” value ([6]; 50 mM KCl, defensins at NPIC, hLf 1 μM, colistin 4 μg/mL) was “no effect”.
